From patent publication US4649215A, “Aliphatic thioethers” (Ciba-Geigy Corporation, priority 1984, dated 1987)
Where a name gives a salt, the structure may show the parent alone.

How the values were obtained:
[1] = target: phospholipase A2 from human leucocytes; experiment: inhibition of phospholipase A2 obtained from human leucocytes; type: biochemical; conditions: human leucocyte enzyme, 37° 1 hour, pH 7, 14C-oleic acid labelled E. coli phospholipides
Procedure: Human neutrophilic polymorphonuclear leucocytes are isolated from "buffy coats" by multistage fractional sedimentation and deep-frozen. Phospholipase A2 is extracted from the cell suspension by homogenisation with the addition of icecold 0.36N H2 SO4 in 2N NaCl, and the supernatant obtained after centrifugation at 10,000× g is dialysed against sodium acetate buffer pH 4.5.
In order to determine the enzyme activity, enzyme (10-30 μg protein) is incubated at 37° for 1 hour in 0.1M tris/HCl buffer pH 7 with the addition of 1 mM CaCl2 and substrate consisting of phospholipides (2 μm) of Escherichia coli that have been radioactively labelled with ^14 C-oleic acid by means of biosynthesis. The reaction is stopped by the addition of Dole reagent (isopropanol/heptane/1N H2 SO4 40:10:1, v/v) and the ^14 C-oleic acid selectively released by phospholipase A2 is extracted. Substrate also extracted at the same time is completely removed by filtering the extract through a column of silica gel. The ^14 C-oleic acid in the eluate is determined by radiometry.
In order to ascertain the inhibitory action of test substances on phospholipase A2, these substances are added in the form of solutions in water, dimethyl sulphoxide (final concentration in the mixture up to 5% v/v) or ethanol (final concentration in the mixture up to 2.5% v/v) to the incubation mixture. […]

[2] = target: phospholipase C from human thrombocytes; experiment: inhibition of phospholipase C obtained from human thrombocytes; type: biochemical; conditions: human thrombocyte enzyme, 37° 5 minutes, pH 6, phosphatidyl-[14C]-inositol
Procedure: To ascertain the enzyme activity, enzyme (20-100 μg protein) is incubated at 37° for 5 minutes in 0.025M tris/malate buffer pH 6 with the addition of 0.2 mM CaCl2 and 0.02 mM radioactively labelled substrate, phosphatidyl-[^14 C]-inositol. The reaction is stopped by extraction by shaking with CHCl3 /CH3 OH 2:1 (v/v). In the course of this unconsumed substrate is extracted into the organic phase, whilst the reaction product, ^14 C-inositol phosphate, remains in the aqueous phase and can be measured by radiometry of an aliquot.
In order to ascertain the inhibitory action of test substances on phospholipase C, these substances are added in the form of solutions in water, dimethyl sulphoxide (final concentration in the mixture up to 5%, v/v) or ethanol (final concentration in the mixture up to 2.5%, v/v) to the incubation mixture. The strength of action of the test substances is expressed by the IC50, that is to say the concentration that causes a 50% inhibition of the control activity. The IC50 is ascertained on a graph by plotting the percentage inhibition on the ordinate against the log of the concentration (μM) on the abscissa.

[3] = system: leucotrienes; experiment: leucotriene-antagonistic activity (test not specified); conditions: reverse absolute configuration at C-5 and C-6 compared with natural leucotrienes
Source text: Thus, in various test arrangements in vitro they have a clear leucotriene-antagonistic action.
As already mentioned above, there is a general analogy between the structure of the compounds of the formula I according to the invention and that of leucotrienes, especially in the obligatory trans-configuration of the vicinal S- and O-atoms mentioned at the beginning and the total structure of the mercaptoalkanoic acid residue (A) (especially in its typical form of a cysteine peptide). They differ from leucotrienes essentially in lacking the characteristic terminal carboxy group in the olefinic radical (B).

Row | Structure (SMILES) | IC50 [1] | IC50 [2] | activity (leucotriene antagonism), in words [3]
1 | CCN(CC)CCCC(C)Nc1c2ccc(Cl)cc2nc2ccc(OC)cc12 (stereo not drawn) [mepacrine] | 1600 µM | 20 µM | –
2 | CCCCCCCC\C=C/C=C/C=C/[C@H](SCC(NC(=O)C(F)(F)F)C(=O)NCC(=O)O)[C@H](O)CCCC (stereo partly drawn) [Example 60A, Sodium salt of N-[S-5(R),6(S)-5-hydroxy-7,9-trans-11-cis-icosatrien-6-yl-N-trifluoroacetylcysteinyl]-glycine] | – | – | highly active
